# Calls of active or inactive are those of the source. No cut-off for these calls is given here.
# Columns and labels:
# [1] = target: Carbonic anhydrase 6 (Homo sapiens) (UniProt P23280); test: Inhibition of human carbonic anhydrase 6 at >100 uM preincubated for 15 mins by stopped flow CO2 hydrase assay
# Carbonic anhydrase 12 [2] = target: T1, Carbonic anhydrase 12 (Homo sapiens, UniProt O43570); test: Inhibition of human carbonic anhydrase 12 preincubated for 15 mins by stopped flow CO2 hydrase assay
# T1 sequence (O43570 whole entry): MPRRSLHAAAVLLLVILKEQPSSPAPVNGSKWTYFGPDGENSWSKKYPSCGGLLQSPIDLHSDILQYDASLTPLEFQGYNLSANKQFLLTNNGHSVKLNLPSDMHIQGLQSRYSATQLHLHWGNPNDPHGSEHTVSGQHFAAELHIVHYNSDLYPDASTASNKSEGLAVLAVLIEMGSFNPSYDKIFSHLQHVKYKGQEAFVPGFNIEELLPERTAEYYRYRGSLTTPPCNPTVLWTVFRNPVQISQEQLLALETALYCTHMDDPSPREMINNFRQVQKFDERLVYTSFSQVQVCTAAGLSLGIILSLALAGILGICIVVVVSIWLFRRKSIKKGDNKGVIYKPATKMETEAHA
# Carbonic anhydrase 4 [3] = target: T2, Carbonic anhydrase 4 (Homo sapiens, UniProt P22748); test: Inhibition of human carbonic anhydrase 4 preincubated for 15 mins by stopped flow CO2 hydrase assay
# T2 sequence (P22748 whole entry): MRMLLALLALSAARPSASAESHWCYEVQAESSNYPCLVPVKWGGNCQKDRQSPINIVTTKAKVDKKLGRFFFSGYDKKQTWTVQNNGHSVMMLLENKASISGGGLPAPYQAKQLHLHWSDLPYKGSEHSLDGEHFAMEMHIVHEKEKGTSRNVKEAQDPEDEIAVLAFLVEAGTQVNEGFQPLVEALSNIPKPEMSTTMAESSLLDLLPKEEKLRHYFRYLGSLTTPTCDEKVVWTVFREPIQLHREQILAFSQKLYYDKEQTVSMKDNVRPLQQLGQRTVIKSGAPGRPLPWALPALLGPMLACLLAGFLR
# [4] = target: T3, Carbonic anhydrase 5A, mitochondrial (Homo sapiens, UniProt P35218); test: Inhibition of human carbonic anhydrase 5a preincubated for 15 mins by stopped flow CO2 hydrase assay
# T3 sequence (P35218 whole entry): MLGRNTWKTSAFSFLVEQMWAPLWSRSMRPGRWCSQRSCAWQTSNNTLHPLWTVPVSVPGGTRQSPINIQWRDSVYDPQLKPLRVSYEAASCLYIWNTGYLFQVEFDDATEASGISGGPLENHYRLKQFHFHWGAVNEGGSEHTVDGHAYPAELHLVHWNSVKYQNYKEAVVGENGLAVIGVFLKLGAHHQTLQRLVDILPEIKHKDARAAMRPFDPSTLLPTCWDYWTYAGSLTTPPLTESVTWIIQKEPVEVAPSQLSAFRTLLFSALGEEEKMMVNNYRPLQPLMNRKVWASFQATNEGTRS
# Carbonic anhydrase 14 [5] = target: T4, Carbonic anhydrase 14 (Homo sapiens, UniProt Q9ULX7); test: Inhibition of human carbonic anhydrase 14 preincubated for 15 mins by stopped flow CO2 hydrase assay
# T4 sequence (Q9ULX7 whole entry): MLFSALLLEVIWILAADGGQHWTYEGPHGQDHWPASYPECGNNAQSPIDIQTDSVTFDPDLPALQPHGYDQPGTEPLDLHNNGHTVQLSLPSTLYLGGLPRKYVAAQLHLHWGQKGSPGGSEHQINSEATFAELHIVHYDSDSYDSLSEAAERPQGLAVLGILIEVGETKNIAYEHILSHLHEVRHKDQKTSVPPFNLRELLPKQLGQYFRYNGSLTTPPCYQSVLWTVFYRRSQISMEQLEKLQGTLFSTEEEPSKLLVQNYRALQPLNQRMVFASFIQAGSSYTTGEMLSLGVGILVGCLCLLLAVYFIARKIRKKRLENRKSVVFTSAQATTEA
# Carbonic anhydrase 7 [6] = target: T5, Carbonic anhydrase 7 (Homo sapiens, UniProt P43166); test: Inhibition of human carbonic anhydrase 7 preincubated for 15 mins by stopped flow CO2 hydrase assay
# T5 sequence (P43166 whole entry): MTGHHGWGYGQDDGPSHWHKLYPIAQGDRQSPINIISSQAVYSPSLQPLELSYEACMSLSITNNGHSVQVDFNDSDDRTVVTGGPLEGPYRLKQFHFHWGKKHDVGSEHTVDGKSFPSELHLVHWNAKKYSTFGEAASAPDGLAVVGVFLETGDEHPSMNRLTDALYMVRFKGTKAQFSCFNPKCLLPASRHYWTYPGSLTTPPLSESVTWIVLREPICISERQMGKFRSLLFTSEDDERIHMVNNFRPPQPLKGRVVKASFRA
# Carbonic anhydrase 13 = Carbonic anhydrase 13 (Mus musculus, UniProt Q9D6N1); test: Inhibition of mouse carbonic anhydrase 13 preincubated for 15 mins by stopped flow CO2 hydrase assay
# Chain of Carbonic anhydrase 13 (Q9D6N1 whole entry): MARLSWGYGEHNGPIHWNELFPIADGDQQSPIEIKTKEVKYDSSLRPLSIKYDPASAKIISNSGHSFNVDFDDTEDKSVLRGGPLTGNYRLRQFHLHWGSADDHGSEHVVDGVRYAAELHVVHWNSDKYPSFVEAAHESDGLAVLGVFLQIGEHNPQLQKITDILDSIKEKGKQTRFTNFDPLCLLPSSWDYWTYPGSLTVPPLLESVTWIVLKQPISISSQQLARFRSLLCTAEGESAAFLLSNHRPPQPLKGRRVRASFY
# Carbonic anhydrase 2 [7] = target: T6, Carbonic anhydrase 2 (Homo sapiens, UniProt P00918); test: Inhibition of human carbonic anhydrase 2 preincubated for 15 mins by stopped flow CO2 hydrase assay
# Carbonic anhydrase 1 [8] = target: T7, Carbonic anhydrase 1 (Homo sapiens, UniProt P00915); test: Inhibition of human carbonic anhydrase 1 preincubated for 15 mins by stopped flow CO2 hydrase assay
# Target sequence in this assay (P00915 whole entry): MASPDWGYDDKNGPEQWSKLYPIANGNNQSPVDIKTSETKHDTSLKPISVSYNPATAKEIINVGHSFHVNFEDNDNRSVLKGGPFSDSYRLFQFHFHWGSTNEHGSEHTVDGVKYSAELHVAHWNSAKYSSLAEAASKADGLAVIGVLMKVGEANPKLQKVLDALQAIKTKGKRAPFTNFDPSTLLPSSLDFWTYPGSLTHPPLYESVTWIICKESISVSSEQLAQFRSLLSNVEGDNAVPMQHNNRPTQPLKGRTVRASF
# Carbonic anhydrase 3 [9] = target: T8, Carbonic anhydrase 3 (Homo sapiens, UniProt P07451); test: Inhibition of human carbonic anhydrase 3 at >100 uM preincubated for 15 mins by stopped flow CO2 hydrase assay
# T8 sequence (P07451 whole entry): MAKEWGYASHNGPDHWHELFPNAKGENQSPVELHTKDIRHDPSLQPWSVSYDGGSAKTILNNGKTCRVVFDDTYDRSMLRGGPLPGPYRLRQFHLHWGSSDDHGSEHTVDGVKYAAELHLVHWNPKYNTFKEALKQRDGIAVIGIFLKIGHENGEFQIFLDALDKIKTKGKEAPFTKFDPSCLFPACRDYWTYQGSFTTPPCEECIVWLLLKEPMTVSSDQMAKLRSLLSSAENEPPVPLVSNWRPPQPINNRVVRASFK
# [10] = target: T9, Carbonic anhydrase 5B, mitochondrial (Homo sapiens, UniProt Q9Y2D0); test: Inhibition of human carbonic anhydrase 5b preincubated for 15 mins by stopped flow CO2 hydrase assay
# T9 sequence (Q9Y2D0 whole entry): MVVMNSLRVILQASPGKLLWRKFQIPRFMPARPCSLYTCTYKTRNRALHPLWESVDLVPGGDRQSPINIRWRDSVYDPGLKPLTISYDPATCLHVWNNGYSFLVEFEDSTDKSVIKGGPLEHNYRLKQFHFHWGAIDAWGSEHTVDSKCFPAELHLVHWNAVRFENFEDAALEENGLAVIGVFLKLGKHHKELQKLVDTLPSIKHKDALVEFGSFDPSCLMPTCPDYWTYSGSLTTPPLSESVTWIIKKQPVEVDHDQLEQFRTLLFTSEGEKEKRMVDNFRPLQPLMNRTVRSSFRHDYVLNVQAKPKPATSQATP
# Carbonic anhydrase 9 [11] = target: T10, Carbonic anhydrase 9 (Homo sapiens, UniProt Q16790); test: Inhibition of human carbonic anhydrase 9 preincubated for 15 mins by stopped flow CO2 hydrase assay
# Carbonic anhydrase 7 [12] = target: T5, Carbonic anhydrase 7; test: Inhibition of human carbonic anhydrase 7 at >100 uM preincubated for 15 mins by stopped flow CO2 hydrase assay
# Carbonic anhydrase 9 [13] = target: T10, Carbonic anhydrase 9; test: Inhibition of human carbonic anhydrase 9 at >100 uM preincubated for 15 mins by stopped flow CO2 hydrase assay
# [14] = target: T3, Carbonic anhydrase 5A, mitochondrial; test: Inhibition of human carbonic anhydrase 5a at >100 uM preincubated for 15 mins by stopped flow CO2 hydrase assay
# Carbonic anhydrase 2 [15] = target: T6, Carbonic anhydrase 2; test: Inhibition of human carbonic anhydrase 2 at >100 uM preincubated for 15 mins by stopped flow CO2 hydrase assay
# [16] = target: T9, Carbonic anhydrase 5B, mitochondrial; test: Inhibition of human carbonic anhydrase 5b at >100 uM preincubated for 15 mins by stopped flow CO2 hydrase assay
# Carbonic anhydrase 3 [17] = target: T8, Carbonic anhydrase 3; test: Inhibition of human carbonic anhydrase 3 preincubated for 15 mins by stopped flow CO2 hydrase assay
# Carbonic anhydrase 12 [18] = target: T1, Carbonic anhydrase 12; test: Inhibition of human carbonic anhydrase 12 at >100 uM preincubated for 15 mins by stopped flow CO2 hydrase assay
# Carbonic anhydrase 1 [19] = target: T7, Carbonic anhydrase 1; test: Inhibition of human carbonic anhydrase 1 at >100 uM preincubated for 15 mins by stopped flow CO2 hydrase assay
# Target sequence in this assay (P00915 2-261 limits assumed): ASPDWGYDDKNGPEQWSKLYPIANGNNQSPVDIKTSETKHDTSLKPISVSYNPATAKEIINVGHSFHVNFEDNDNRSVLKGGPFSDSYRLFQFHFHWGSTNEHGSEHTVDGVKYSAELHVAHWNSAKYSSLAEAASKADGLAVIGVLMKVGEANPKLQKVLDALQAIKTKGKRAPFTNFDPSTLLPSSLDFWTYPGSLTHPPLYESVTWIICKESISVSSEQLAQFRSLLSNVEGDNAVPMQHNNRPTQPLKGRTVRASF
# Carbonic anhydrase 4 [20] = target: T2, Carbonic anhydrase 4; test: Inhibition of human carbonic anhydrase 4 at >100 uM preincubated for 15 mins by stopped flow CO2 hydrase assay
# Carbonic anhydrase 14 [21] = target: T4, Carbonic anhydrase 14; test: Inhibition of human carbonic anhydrase 14 at >100 uM preincubated for 15 mins by stopped flow CO2 hydrase assay
# Chain of Carbonic anhydrase 6 (Homo sapiens) (P23280 whole entry): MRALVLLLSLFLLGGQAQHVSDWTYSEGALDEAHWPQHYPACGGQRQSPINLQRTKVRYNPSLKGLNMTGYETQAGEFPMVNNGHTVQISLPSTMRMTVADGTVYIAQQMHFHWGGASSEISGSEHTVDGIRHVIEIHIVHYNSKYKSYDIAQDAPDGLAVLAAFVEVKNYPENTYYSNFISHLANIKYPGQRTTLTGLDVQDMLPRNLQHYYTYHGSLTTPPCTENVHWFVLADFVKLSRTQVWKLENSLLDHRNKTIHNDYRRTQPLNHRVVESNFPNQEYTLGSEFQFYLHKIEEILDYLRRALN
Structure (SMILES),inhibition [1],Ki (Carbonic anhydrase 12 [2]),Ki (Carbonic anhydrase 4 [3]),Ki [4],Ki (Carbonic anhydrase 14 [5]),Ki (Carbonic anhydrase 13),Ki (Carbonic anhydrase 2 [7]),Ki (Carbonic anhydrase 1 [8]),inhibition (Carbonic anhydrase 3 [9]),Ki [10],Ki (Carbonic anhydrase 9 [11]),inhibition (Carbonic anhydrase 7 [12]),inhibition (Carbonic anhydrase 9 [13]),inhibition [14],inhibition (Carbonic anhydrase 2 [15]),inhibition [16],Ki (Carbonic anhydrase 3 [17]),inhibition (Carbonic anhydrase 12 [18]),inhibition (Carbonic anhydrase 1 [19]),inhibition (Carbonic anhydrase 4 [20]),further results
O=C1C=CC[C@H](C[C@@H](O)CCc2cc(Br)c(O)cc2Br)O1,inactive,10.8 µM,13.7 µM,8.55 µM,12.5 µM,7.89 µM,21.8 µM,0.76 µM,inactive,6.32 µM,15.7 µM,inactive,–,–,–,–,–,–,–,–,–
O=C1C[C@H]2C[C@H](C[C@H](CCc3ccc(O)cc3)O2)O1,inactive,–,–,–,–,0.91 µM,–,–,–,–,–,inactive,inactive,inactive,inactive,inactive,10.8 µM,inactive,inactive,inactive,inhibition (Carbonic anhydrase 14 [21]): inactive
O=C1C=CC[C@H](C[C@@H](O)CCc2ccc(O)cc2O)O1,inactive,24.5 µM,4.12 µM,21.6 µM,7.24 µM,8.13 µM,–,0.38 µM,inactive,13.7 µM,32.6 µM,inactive,–,–,inactive,–,–,–,–,–,–
O=C1C[C@H]2C[C@H](C[C@H](CCc3ccc(O)cc3O)O2)O1,inactive,–,–,–,–,0.34 µM,–,–,–,–,–,inactive,inactive,inactive,inactive,inactive,5.13 µM,inactive,inactive,inactive,inhibition (Carbonic anhydrase 14 [21]): inactive

# Second part, led by results:
inhibition [1],Ki (Carbonic anhydrase 12 [2]),Ki (Carbonic anhydrase 4 [3]),Ki [4],Ki (Carbonic anhydrase 14 [5]),Ki (Carbonic anhydrase 13),Ki (Carbonic anhydrase 2 [7]),Ki (Carbonic anhydrase 1 [8]),inhibition (Carbonic anhydrase 3 [9]),Ki [10],Ki (Carbonic anhydrase 9 [11]),inhibition (Carbonic anhydrase 7 [12]),inhibition (Carbonic anhydrase 9 [13]),inhibition [14],inhibition (Carbonic anhydrase 2 [15]),inhibition [16],Ki (Carbonic anhydrase 3 [17]),inhibition (Carbonic anhydrase 12 [18]),inhibition (Carbonic anhydrase 1 [19]),inhibition (Carbonic anhydrase 4 [20]),Structure (SMILES),further results
inactive,1.48 µM,5.36 µM,7.13 µM,2.44 µM,0.96 µM,36.9 µM,0.13 µM,inactive,1.36 µM,3.57 µM,–,–,–,–,–,–,–,–,–,O=C1C=CC[C@H](C[C@H](F)CCc2ccc(O)cc2)O1,Ki (Carbonic anhydrase 7 [6]): 24.9 µM
inactive,–,9.61 µM,–,9.34 µM,9.27 µM,–,5.48 µM,–,–,–,inactive,inactive,inactive,inactive,inactive,10.3 µM,inactive,–,–,O=C1C=CC[C@H](C[C@@H](O)CCc2ccc(O)cc2)O1,–
